Assay results as given in article PMC6696208, “Antityrosinase, Antioxidant, and Cytotoxic Activities of Phytochemical Constituents from Manilkara zapota L. Bark” (Molecules, 2019).
Where “and” joins values, the source holds several entries; their conditions need not be identical. Identical values can stand only once. Like-named read-outs stand apart in the source and are kept apart here. Marks after values point to notes of the source that are not given here.

Legend:
[1] = tested on: HepG2 liver carcinoma cell line; assay: MTT cytotoxicity assay, HepG2; assay type: cell-based; conditions: Homo sapiens, 72 h
Method: (§1) Cytotoxic activity was evaluated in vitro using the microtitration colorimetric method of MTT reduction. In this study, five human carcinoma cell lines were used, including BT474 (ATCC® HTB20^TM), Chago-K1 (National Cancer Institute, Thailand), HepG2 (ATCC® HB8065^TM), KATO-III (ATCC® HTB103^TM), and SW620 (ATCC® CCL227^TM). Additionally, human diploid lung fibroblast (WI-38, ATCC® CCL75^TM) was used as the normal cell line for comparison with the carcinoma cell lines. The culturing of these cell lines was derived in complete medium, including Roswell Park Memorial Institute medium (RPMI-1640), fetal bovine serum (5%, v/v), 25 mM of 4-(2-hydroxyethyl)-1-piperazineethanesulfonic acid (HEPES), sodium bicarbonate (0.25%, w/v), and kanamycin (100 μg/mL). Doxorubicin was used as a positive control. Each well plate contained 198 μL of culture medium of cell lines and was incubated with 5% CO2 atmosphere for 24 h at 37 °C. Then, the culture cells were treated with 2 μL/well of the sample and incubated for 72 h at 37 °C. MTT solution (2 μL, 5 mg/mL in normal saline) was added into each well, and the plates were incubated for an additional 4 h. The supernatant was aspirated out. After that, a mixture of 25 μL of 0.1 M glycine and 150 μL of DMSO was added. The plates were shaken to dissolve the purple-blue crystal of formazan. Then, the absorbance was determined by a microplate reader at 540 nm. The relative cell survival as a percentage of the control (DMSO), which was set at 100%, was calculated using the following formula:(5) The cell survival (%)=[As/Ac] × 100. where As is the absorbance of the test sample and Ac is the absorbance of […].

Mushroom tyrosinase [2] = target: T1, Mushroom tyrosinase (Agaricus bisporus, UniProt C7FF04); assay: Kinetic analysis of tyrosinase inhibition, monophenolase activity (Lineweaver-Burk plots); assay type: biochemical; conditions: L-tyrosine 0-200 μM, samples 20-1000 μM
Method: (§2) The kinetic analysis of tyrosinase inhibitory activity was performed with respect to both monophenolase and diphenolase activities. The concentration ranges of the samples were 20–1000 μM. Both L-tyrosine and L-DOPA were concentrated at 0, 25, 50, 100, and 200 μM, respectively. The inhibitory kinetics of the samples were analyzed using Lineweaver–Burk plots.

[3] = tested on: KATO-III gastric carcinoma cell line; assay: MTT cytotoxicity assay, KATO-III; assay type: cell-based; conditions: Homo sapiens, 72 h
Method: as §1

Mushroom tyrosinase [4] = target: T1, Mushroom tyrosinase; assay: Kinetic analysis of tyrosinase inhibition, diphenolase activity (Lineweaver-Burk plots); assay type: biochemical; conditions: L-DOPA 0-200 μM, samples 20-1000 μM
Method: as §2

[5] = tested on: BT474 breast carcinoma cell line; assay: MTT cytotoxicity assay, BT474; assay type: cell-based; conditions: Homo sapiens, BT-474, 72 h
Method: as §1

[6] = FRAP assay (ferric reducing antioxidant power); conditions: FRAP value, expressed as ferrous sulphate equivalent, mean ± SD of three replicates
Method: FRAP assay was conducted using a modified version of a method originally reported in an earlier study. The FRAP reagent contained 25 mL of 0.3 M acetate buffer (pH 3.6), 2.5 mL of 20 mM ferric chloride solution, and 2.5 mL of 10 mM 2,4,6-tris(2-pyridyl)-1,3,5-triazine and was brought to a final volume of 50 mL using 40 mM HCl solution. Then, the FRAP reagent was put into a water bath for 30 min at 50 °C. Next, 600 μL of FRAP reagent was added to 25 μL of the sample (100 mg/mL). The absorbance was recorded at 595 nm after 4 min of incubation using a spectrophotometer. Trolox was used as a positive control. The ferric reducing capacity was expressed as a ferrous sulphate equivalent.

[7] = DPPH radical scavenging assay; conditions: mean ± SD of three replicates
Method: The DPPH radical scavenging activity was determined by a modified method based on a previously described procedure. Briefly, a solution containing 50 µL of sample (100 mg/mL) was dissolved in DMSO/ethanol (1:4 v/v) and 150 µL of 0.05 M DPPH solution in methanol. Then, the reaction mixture was mixed and was incubated in the dark for 30 min at 37 °C. The absorbance of the reaction mixture was measured at 517 nm. Trolox was used as a positive control. The DPPH scavenging effect was calculated according to the following equation:(3) DPPH radical scavenging activity (%)=[1−(As−Ab)/Ad]× 100. where As is the absorbance of the sample mixed with DPPH solution, Ab is the absorbance of the sample without DPPH solution, and Ad is the absorbance of DPPH solution without the sample.

[8] = tested on: SW620 colon carcinoma cell line; assay: MTT cytotoxicity assay, SW620; assay type: cell-based; conditions: Homo sapiens, SW-620, 72 h
Method: as §1

[9] = tested on: WI-38 human diploid lung fibroblast; assay: MTT cytotoxicity assay, WI-38 normal cell line; assay type: cell-based; conditions: 72 h
Method: as §1

[10] = tested on: Chago-K1 lung bronchus carcinoma cell line; assay: MTT cytotoxicity assay, Chago-K1; assay type: cell-based; conditions: Homo sapiens, ChaGo-K-1, 72 h
Method: as §1

[11] = ABTS radical scavenging assay; conditions: mean ± SD of three replicates
Method: The ABTS radical scavenging capacity was determined using a modified version of a previously described procedure. The stock solution included 100 mL of 7.0 mM ABTS solution in methanol and 100 mL of 2.4 mM aqueous solution of potassium persulfate. Then, the reaction mixture was left in the dark for 14 h at 37 °C. The solution of 1 mL of ABTS solution was diluted with 60 mL of absolute ethanol to determine an absorbance of 0.700 ± 0.001 units at 734 nm using a spectrophotometer. Next, 500 µL of the sample (100 mg/mL) was reacted with 500 µL of ABTS solution and the absorbance was measured at 734 nm after 7 min of incubation using a spectrophotometer. The results were compared with Trolox as a standard, and the percentage of scavenging activity was calculated according to the following equation:(4) ABTS radical scavenging activity (%)=[(Ac−As)/Ac]×100. where Ac is the absorbance of ABTS radicals with ethanol and As is the absorbance of ABTS radicals with the test sample or positive control.

tyrosinase = target: tyrosinase; set-up: method as in PMID 30364385; conditions: L-DOPA as substrate; read-out: IC50, antityrosinase; cited from earlier work
[12] = set-up: method as in PMID 30364385; conditions: read-out: IC50 for DPPH; cited from earlier work
[13] = set-up: method as in PMID 30364385; conditions: read-out: IC50 for ABTS; cited from earlier work

T1 sequence (G1K3P4 entry or part of it): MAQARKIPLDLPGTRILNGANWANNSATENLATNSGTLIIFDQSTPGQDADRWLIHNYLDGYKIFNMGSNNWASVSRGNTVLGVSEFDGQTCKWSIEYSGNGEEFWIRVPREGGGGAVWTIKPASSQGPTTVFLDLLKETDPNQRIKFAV
T1 sequence (C7FF04 1-392): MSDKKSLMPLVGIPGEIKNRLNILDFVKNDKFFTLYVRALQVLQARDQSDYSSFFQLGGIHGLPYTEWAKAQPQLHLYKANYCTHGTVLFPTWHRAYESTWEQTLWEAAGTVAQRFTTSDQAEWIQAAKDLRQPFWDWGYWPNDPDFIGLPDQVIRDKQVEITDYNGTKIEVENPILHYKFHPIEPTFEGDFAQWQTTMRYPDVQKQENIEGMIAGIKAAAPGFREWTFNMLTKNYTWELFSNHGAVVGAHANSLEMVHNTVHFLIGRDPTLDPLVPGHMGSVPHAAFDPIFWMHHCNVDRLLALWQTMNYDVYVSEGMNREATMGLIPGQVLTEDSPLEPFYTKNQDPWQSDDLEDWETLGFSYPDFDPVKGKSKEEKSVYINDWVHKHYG

| Structure (SMILES) | IC50 [1] [µM] | Type of inhibition, monophenolase activity (Mushroom tyrosinase [2]) | IC50 [3] [µM] | Type of inhibition, diphenolase activity (Mushroom tyrosinase [4]) | IC50 [5] [µM] | FRAP [6] | IC50 [7] [µM] | IC50 [8] [µM] | IC50 [9] [µM] | IC50 [10] [µM] | IC50 [11] [µM] | FRAP ([6]; listed as 6-hydroxyflavanone (3)) [µM] | FRAP ([6]; listed as (+)-dihydrokaempferol (4)) [µM] | melting point [°C] | IC50 (tyrosinase) [µM] | IC50 [12] [µM] | IC50 [13] [µM] |
| --- | --- | --- | --- | --- | --- | --- | --- | --- | --- | --- | --- | --- | --- | --- | --- | --- | --- |
| CC1(C)CC[C@]2(C)CC=C3[C@]4(C)CC[C@H]5C(C)(C)C(=O)CC[C@]5(C)[C@H]4CC[C@@]3(C)[C@@H]2C1 [Taraxerone (7), taraxerone] | 20.4 ± 1.43 | mixed | 26.5 ± 0.57 | mixed | 19.2 ± 0.4 | 1.12 ± 0.13 ^a μM | 10.2 ± 0.4 | > 234 | > 234 | 26.8 ± 0.97 | 334.8 ± 0.99 | – | – | – | – | – | – |
| O=C(O)c1ccc(O)c(O)c1 [3,4-Dihydroxybenzoic acid (5), 3,4-dihydroxybenzoic acid] | 364.7 ± 2.27 | competitive | 507.5 ± 4.61 | competitive | 85.2 ± 3.96 | 3.00 ± 0.40 ^b μM | 4.71 ± 0.1 | 591.4 ± 0.71 | > 649 | 79.2 ± 4.02 | 290.1 ± 0.95 | – | – | – | – | – | – |
| CC1(C)CC[C@]2(C)CC=C3[C@]4(C)CC[C@H]5C(C)(C)[C@@H](O)CC[C@]5(C)[C@H]4CC[C@@]3(C)[C@@H]2C1 [Taraxerol (6), taraxerol] | > 235 | noncompetitive | > 235 | uncompetitive | > 235 | 1.46 ± 0.11 ^a μM | 16.3 ± 0.33 | > 235 | > 235 | > 235 | 630.84 ± 0.54 | – | – | – | – | – | – |
| O=C1CC(c2ccccc2)Oc2ccc(O)cc21 (stereo not drawn) [6-Hydroxyflavanone (3), 6-hydroxyflavanone] | 65.8 ± 2.37 | competitive | 88.8 ± 3.7 | competitive | 86.16 ± 0.45 | 4.12 ± 0.12 ^c μM | 3.21 ± 0.7 | 82.8 ± 1.33 | > 416 | 57.7 ± 1.08 | 225.5 ± 0.95 | 4.12 ± 0.12 | – | – | – | – | – |
| O=C1c2c(O)cc(O)cc2O[C@H](c2ccc(O)cc2)[C@H]1O [(+)-Dihydrokaempferol (4), (+)-dihydrokaempferol] | 13.7 ± 0.38 | competitive | 39.79 ± 0.38 | competitive | 11.7 ± 0.42 | 6.23 ± 0.10 ^d μM | 2.21 ± 0.77 | 41.1 ± 1.08 | > 347 | 12.3 ± 0.73 | 214.8 ± 0.51 | – | 6.23 ± 0.10 | – | – | – | – |
| C=C(C)[C@@H]1CC[C@]2(C)CC[C@]3(C)C(CCC4[C@@]5(C)CCC(OC(C)=O)C(C)(C)C5CC[C@]43C)C12 (stereo partly drawn) [Lupeol acetate (8), lupeol acetate] | > 213 | mixed | 136.7 ± 0.66 | uncompetitive | 60.2 ± 0.9 | 1.28 ± 0.30 ^a μM | 87.1 ± 0.31 | 182.7 ± 1.51 | > 213 | 199.9 ± 0.3 | 669.62 ± 0.42 | – | – | 210 to 212 | – | – | – |
| Cc1c(C)c2c(c(C)c1O)CCC(C)(C(=O)O)O2 (stereo not drawn) [Trolox, reference compound] | – | – | – | – | – | 6.10 ± 0.28 μM and 6.10 ± 0.28 ^d μM | 1.92 ± 0.22 | – | – | – | 188.4 ± 0.43 | – | – | – | – | – | – |
| COc1cccc2c1C(=O)c1c(O)c3c(c(O)c1C2=O)C[C@@](O)(C(=O)CO)C[C@@H]3O[C@H]1C[C@H](N)[C@H](O)[C@H](C)O1 [Doxorubicin, reference compound] | 2.7 ± 0.83 | – | 1.78 ± 0.83 | – | 1.21 ± 0.2 | – | – | 1.82 ± 0.39 | > 184 | 1.58 ± 0.4 | – | – | – | – | – | – | – |
| O=C1c2c(O)cc(O)cc2O[C@H](c2cc(O)c(O)c(O)c2)[C@H]1O [dihydromyricetin] | – | – | – | – | – | – | – | – | – | – | – | – | – | – | 3.33 | 12.4 | 3.41 |
| CO[C@H]1CC[C@@]2(C)C(CC[C@@]3(C)C4=CC[C@]5(C)CCC(C)(C)CC5[C@@]4(C)CCC23)C1(C)C (stereo partly drawn) [Taraxerol methyl ether (1), taraxerol methyl ether] | > 227 | noncompetitive | > 227 | noncompetitive | 185 ± 1.61 | 1.31 ± 0.16 ^a μM | 77.31 ± 0.6 | > 227 | > 227 | > 227 | 520.22 ± 0.3 | – | – | 278 to 280 | – | – | – |
